This is an account of results in patent publication US20240150377A1, “MODULATORS OF CYSTIC FIBROSIS TRANSMEMBRANE CONDUCTANCE REGULATOR” (VERTEX PHARMACEUTICALS INCORPORATED, priority 2020, published 2024).

The assay concerns the target T1, CFTR (Homo sapiens, UniProt P13569, DEL508-508).
T1 construct: endogenous in cells; host or cells: primary human bronchial epithelial cells from CF subjects (F508del/MF-HBE), differentiated at air-liquid interface
Description: HBE assay: Ussing chamber assay of CFTR-mediated short-circuit currents. The class given is cell-based. Put shortly:
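CFTR-mediated Isc (μA/cm²) equals the peak response to apical 20 μM forskolin minus the residual after a 20 μM each BPO/GlyH-101/CFTR inhibitor 172 cocktail, recorded in Ussing chambers at Vhold 0 mV, 37 °C, pH 7.4, with 30 μM apical amiloride. Cells were F508del/MF HBE cultures preincubated 18-24 h with corrector (concentration range or 10 μM) plus 1 μM ivacaftor in 20% human serum.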

Setting [1] is: Table 12, at 10 μM, read-out: HBE Activity at 10 μM (%).
Where [2] appears, read: Table 12, read-out: HBE Max Activity (%).
Where [3] appears, read: Table 13, read-out: HBE Max Activity (%).
Setting [4] is: HBE assay, read-out: HBE Max activity (%).
[5] abbreviates: Table 13, at 10 μM, read-out: HBE Activity at 10 μM (%).
The mark [6] stands for this setting: Table 11, read-out: HBE Max Activity (%).
The mark [7] stands for this setting: Table 10, read-out: HBE Max activity (%).
[8] abbreviates: Table 10, at 10 μM, read-out: HBE activity at 10 (μM) (%).

Where two headings read alike, the source gives them in different places. A value given as a limit tells only on which side of the number the result lay.

T1 sequence (P13569 with tags, fused parts or gaps DEL508-508): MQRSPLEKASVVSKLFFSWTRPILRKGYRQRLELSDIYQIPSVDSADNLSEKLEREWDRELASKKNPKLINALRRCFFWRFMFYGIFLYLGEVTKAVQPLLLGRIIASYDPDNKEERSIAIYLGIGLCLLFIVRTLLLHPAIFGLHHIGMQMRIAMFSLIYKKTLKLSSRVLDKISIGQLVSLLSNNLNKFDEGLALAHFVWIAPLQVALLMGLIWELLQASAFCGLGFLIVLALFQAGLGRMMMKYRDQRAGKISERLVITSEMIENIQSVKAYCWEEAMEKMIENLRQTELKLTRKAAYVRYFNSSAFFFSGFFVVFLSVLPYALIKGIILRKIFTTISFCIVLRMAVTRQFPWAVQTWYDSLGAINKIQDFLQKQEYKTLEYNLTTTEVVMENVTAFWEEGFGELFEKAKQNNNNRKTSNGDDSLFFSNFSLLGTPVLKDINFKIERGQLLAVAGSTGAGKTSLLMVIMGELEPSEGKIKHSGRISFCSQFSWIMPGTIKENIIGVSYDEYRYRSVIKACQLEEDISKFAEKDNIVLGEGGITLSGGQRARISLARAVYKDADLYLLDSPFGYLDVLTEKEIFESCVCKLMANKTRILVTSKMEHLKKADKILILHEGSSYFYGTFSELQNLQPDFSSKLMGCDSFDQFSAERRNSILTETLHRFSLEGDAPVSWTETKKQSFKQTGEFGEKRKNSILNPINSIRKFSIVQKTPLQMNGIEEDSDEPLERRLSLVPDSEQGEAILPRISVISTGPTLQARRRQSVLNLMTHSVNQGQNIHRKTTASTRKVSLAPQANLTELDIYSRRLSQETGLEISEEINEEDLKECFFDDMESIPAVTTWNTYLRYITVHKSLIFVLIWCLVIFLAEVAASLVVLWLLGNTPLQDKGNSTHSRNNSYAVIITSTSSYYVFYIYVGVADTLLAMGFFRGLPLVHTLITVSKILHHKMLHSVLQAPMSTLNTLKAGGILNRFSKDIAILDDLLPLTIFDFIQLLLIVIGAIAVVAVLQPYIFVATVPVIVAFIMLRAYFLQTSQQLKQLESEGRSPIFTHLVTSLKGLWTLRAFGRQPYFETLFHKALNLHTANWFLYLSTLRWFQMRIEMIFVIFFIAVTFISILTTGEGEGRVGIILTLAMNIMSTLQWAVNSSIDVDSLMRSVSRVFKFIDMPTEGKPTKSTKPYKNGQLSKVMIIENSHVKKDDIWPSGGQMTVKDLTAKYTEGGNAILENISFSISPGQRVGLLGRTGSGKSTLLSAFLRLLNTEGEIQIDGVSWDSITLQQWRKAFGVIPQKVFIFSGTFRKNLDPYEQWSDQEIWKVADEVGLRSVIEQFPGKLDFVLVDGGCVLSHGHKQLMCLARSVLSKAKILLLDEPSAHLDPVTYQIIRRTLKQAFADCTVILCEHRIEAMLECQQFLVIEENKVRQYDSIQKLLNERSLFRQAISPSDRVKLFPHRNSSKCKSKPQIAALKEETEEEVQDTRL

A word on the EC50: it is the concentration needed to bring the measured effect to its halfway point. On to `Cc1cccc(C)c1-c1cc2nc(n1)NS(=O)(=O)c1cccc(c1)C(=O)N(Cc1nc(C(C)C)c[nH]1)[C@H](CC(C)(C)C)CO2` [Compound 264], for which the activation at 10 µM under setting [1] was below 30%. Further, under “Table 12, read-out: HBE EC50”, the EC50 is below 1 µM. The Emax under setting [2] is above 60%.
On to `Cc1cccc(C)c1-c1cc2nc(n1)NS(=O)(=O)c1cccc(c1)C(=O)N(Cc1ncc(N3CCC(C)(C)CC3)cc1C(F)(F)F)[C@H](CC(C)(C)C)CO2` [Compound 1139], for which the EC50 (Table 13, read-out: HBE EC50) is 1 to 3 µM. Moreover, the Emax under setting [3] is above 60%.
`Cc1cccc(C)c1-c1cc2nc(n1)NS(=O)(=O)c1cccc(c1)C(=O)N(CC1CCN(CCC(C)(C)C)C1=O)[C@H](CC(C)(C)C)CO2` (stereo partly shown) [Compound 653]: the concentration giving a half-maximal response (EC50) (Table 11, read-out: HBE EC50) is below 1 µM.
As for `Cc1cccc(C)c1-c1cc2nc(n1)NS(=O)(=O)c1cccc(c1)C(=O)N(Cc1cncc(N3CCCC3(C)C)c1)[C@H](CC(C)(C)C)CO2` [Compound 282], the activation at 10 µM under setting [1] was above 600%.
`Cc1cccc(C)c1-c1cc2nc(n1)NS(=O)(=O)c1cccc(c1)C(=O)N(CC(=O)N(C)CC1CCCCC1)[C@H](CC(C)(C)C)CO2` [Compound 231]: the EC50 (Table 12, read-out: HBE EC50) was below 1 µM. In addition, under setting [2], the Emax was above 60%.
Consider `Cc1cccc(C)c1-c1cc2nc(n1)NS(=O)(=O)c1cccc(c1)C(=O)N(Cc1ncc(N3CC[C@@](C)(F)C3)cn1)[C@H](CC(C)(C)C)CO2` [Compound 1441], for which the EC50 (HBE assay, read-out: HBE EC50) was below 1 µM. Further, the Emax under setting [4] is above 60%.
Take `Cc1cccc(C)c1-c1cc2nc(n1)NS(=O)(=O)c1cccc(c1)C(=O)N(CC(=O)N1CC3(CCC3)C1)[C@H](CC(C)(C)C)CO2` [Compound 170]: the activation at 10 µM under setting [5] lay in the range of 30 to 60%.
For the compound `Cc1cccc(C)c1-c1cc2nc(n1)NS(=O)(=O)c1cccc(c1)C(=O)N(CC1CCOCC1)[C@H](CC(C)(C)C)CO2` [Compound 820], where the note is “Table 11, read-out: HBE EC50”, the EC50 is below 1 µM. Besides, under setting [6], the Emax was above 60%.
`Cc1cccc(C)c1-c1cc2nc(n1)NS(=O)(=O)c1cccc(c1)C(=O)N(Cc1ccc(-c3ccccc3)cn1)[C@H](CC(C)(C)C)CO2` [Compound 499]: the 50% effective concentration (EC50) (Table 10, read-out: HBE EC50) was below 1 µM. In addition, the Emax under setting [7] was above 60%.
Regarding `Cc1cccc(C)c1-c1cc2nc(n1)NS(=O)(=O)c1cccc(c1)C(=O)N(Cc1cccc(CO)n1)[C@H](CC(C)(C)C)CO2` [Compound 816], the concentration for a half-maximal effect (EC50) (Table 11, read-out: HBE EC50) was below 1 µM. Besides, the Emax under setting [6] was above 60%.
As to `Cc1cccc(C)c1-c1cc2nc(n1)NS(=O)(=O)c1cccc(c1)C(=O)N(Cc1ncc(N3C4CCC3CC4)cn1)[C@H](CC(C)(C)C)CO2` [Compound 554], the EC50 (HBE EC50 (μM), Table 12) was below 1 µM. In addition, the Emax under setting [2] is above 60%.
As to `Cc1cccc(C)c1-c1cc2nc(n1)NS(=O)(=O)c1cccc(c1)C(=O)N(Cc1ccn(C(C)C)n1)[C@H](CC(C)(C)C)CO2` [Compound 480], the Emax under setting [7] was above 60%.
With `Cc1cccc(C)c1-c1cc2nc(n1)NS(=O)(=O)c1cccc(c1)C(=O)N(Cc1cccc(N3CCOCC3)n1)[C@H](CC(C)(C)C)CO2` [Compound 384], the half-maximal effective concentration (EC50) (Table 10, read-out: HBE EC50) was below 1 µM. The Emax under setting [7] was above 60%.
Consider `COC1(C)CCN(c2ccc(CN3C(=O)c4cccc(c4)S(=O)(=O)Nc4nc(cc(-c5c(C)cccc5C)n4)OC[C@H]3CC(C)(C)C)nc2)CC1` [Compound 1059], for which, under “Table 13, read-out: HBE EC50”, the EC50 is below 1 µM. Besides, the Emax under setting [3] was above 60%.
As for `Cc1cccc(C)c1-c1cc2nc(n1)NS(=O)(=O)c1cccc(c1)C(=O)N(Cc1ncc(C(C)(C)C)cn1)[C@H](CC(C)(C)C)CO2` [Compound 815], for the setting “Table 11, read-out: HBE EC50”, the EC50 is below 1 µM. Also, the Emax under setting [6] was above 60%.
Turning to `Cc1cccc(C)c1-c1cc2nc(n1)NS(=O)(=O)c1cccc(c1)C(=O)N(CC(=O)NCCN1CCOCC1)[C@H](CC(C)(C)C)CO2` [Compound 166], the activation at 10 µM under setting [1] was above 600%.
Take `Cc1cccc(C)c1-c1cc2nc(n1)NS(=O)(=O)c1cccc(c1)C(=O)N(Cc1nccc(N)n1)[C@H](CC(C)(C)C)CO2` [Compound 645]: the EC50 (Table 11, read-out: HBE EC50) was below 1 µM. The Emax under setting [6] is above 60%.
As to `Cc1cccc(C)c1-c1cc2nc(n1)NS(=O)(=O)c1cccc(c1)C1Oc3ncc4ccccc4c3CN1[C@H](CC(C)(C)C)CO2` (stereo partly shown) [Compound 753], under setting [8], the activation at 10 µM lay in the range of 30 to 60%.
Regarding `Cc1cccc(C)c1-c1cc2nc(n1)NS(=O)(=O)c1cccc(c1)C(=O)N(CC(=O)N1C[C@H](C)CC1(C)C)[C@H](CC(C)(C)C)CO2` [Compound 204], the activation at 10 µM under setting [5] is above 600%.
For `Cc1cccc(C)c1-c1cc2nc(n1)NS(=O)(=O)c1cccc(c1)C(=O)N(Cc1ncc(C3CCOCC3)cc1F)[C@H](CC(C)(C)C)CO2` [Compound 521], the activation at 10 µM under setting [1] is above 600%.
As to `CC[C@H](C)[C@@H]1COc2cc(-c3c(C)cccc3C)nc(n2)NS(=O)(=O)c2cccc(c2)C(=O)N1Cc1ncc(OC2CCC2)cn1` [Compound 1472], the activation at 10 µM (HBE assay, 10 μM, read-out: HBE Activity at 10 μM (%)) was above 60%. Besides, the EC50 (HBE assay, read-out: HBE EC50) was below 1 µM. Moreover, the Emax under setting [4] is above 60%.
Take `Cc1cccc(C)c1-c1cc2nc(n1)NS(=O)(=O)c1cccc(c1)C(=O)N(Cc1cnn(C)c1)[C@H](CC(C)(C)C)CO2` [Compound 826]: the activation at 10 µM under setting [8] is above 60%.
As for `Cc1cccc(C)c1-c1cc2nc(n1)NS(=O)(=O)c1cccc(c1)C(=O)N(Cc1ccccc1-c1cn[nH]c1)[C@H](CC(C)(C)C)CO2` [Compound 147, (11R)-6-(2,6-dimethylphenyl)-11-(2,2-dimethylpropyl)-12-{[2-(1H-pyrazol-4-yl)phenyl]methyl}-9-oxa-2λ^6-thia-3,5,12,19-tetraazatricyclo[12.3.1.14,8]nonadeca-1(17),4,6,8(19),14(18),15-hexaene-2,2,13-trione], the EC50 (Table 10, read-out: HBE EC50) was below 1 µM. In addition, under setting [7], the Emax is above 60%.
`Cc1ccc(F)c(CN2C(=O)c3cccc(c3)S(=O)(=O)Nc3nc(cc(-c4c(C)cccc4C)n3)OC[C@H]2CC(C)(C)C)n1` [Compound 1113]: for the setting “Table 13, read-out: HBE EC50”, the concentration giving a half-maximal response (EC50) is below 1 µM. For the same compound, the Emax under setting [3] was above 60%.
With `CC[C@@H](C)[C@@H]1COc2cc(-c3c(C)cccc3C)nc(n2)NS(=O)(=O)c2cccc(c2)C(=O)N1Cc1ncc(OC2CCC2)cn1` [Compound 1474], the 50% effective concentration (EC50) (HBE assay, read-out: HBE EC50) was below 1 µM. Further, the Emax under setting [4] is above 60%.
`Cc1cccc(C)c1-c1cc2nc(n1)NS(=O)(=O)c1cccc(c1)C(=O)N(Cc1cccc(N3CCC(C)(O)CC3)n1)[C@H](CC(C)(C)C)CO2` [Compound 721]: where the note is “Table 11, read-out: HBE EC50”, the 50% effective concentration (EC50) is below 1 µM. Under setting [6], the Emax was above 60%.
On to `Cc1cccc(C)c1-c1cc2nc(n1)NS(=O)(=O)c1cccc(c1)C(=O)N(CC1CCCO1)[C@H](CC(C)(C)C)CO2` (stereo partly shown) [Compound 835], for which the EC50 (Table 10, read-out: HBE EC50) is below 1 µM. The Emax under setting [7] is above 60%.
`Cc1cccc(C)c1-c1cc2nc(n1)NS(=O)(=O)c1cccc(c1)C(=O)N(C[C@H]1C[C@@H](NC(=O)OC(C)C)C1)[C@H](CC(C)(C)C)CO2` [Compound 1005]: the concentration giving a half-maximal response (EC50) (Table 12, read-out: HBE EC50) is below 1 µM. For the same compound, the Emax under setting [2] is above 60%.
Regarding `Cc1cccc(C)c1-c1cc2nc(n1)NS(=O)(=O)c1cccc(c1)C(=O)N(Cc1ncc(OC(C)C)cc1F)[C@H](CC1CC1)CO2` [Compound 1467], the EC50 (HBE assay, read-out: HBE EC50) was 1 to 3 µM. Also, the Emax under setting [4] was above 60%.
Take `Cc1cccc(C)c1-c1cc2nc(n1)NS(=O)(=O)c1cccc(c1)C(=O)N(Cc1nccc(N3CCC(C)(C)CC3)n1)[C@H](CC(C)(C)C)CO2` [Compound 620]: for the setting “Table 11”, the “HBE Max activity (%)” value is “+ (+ is <30%)”. The activation at 10 µM (Table 11, at 10 μM, read-out: HBE Activity at 10 μM (%)) was above 60%.
Regarding `Cc1cccc(C)c1-c1cc2nc(n1)NS(=O)(=O)c1cccc(c1)C(=O)N(Cc1cncc(N(C)C34CC(C3)C4)n1)[C@H](CC(C)(C)C)CO2` [Compound 443], the concentration for a half-maximal effect (EC50) (Table 12, read-out: HBE EC50) is below 1 µM. Further, under setting [2], the Emax is above 60%.
